Results as given in the NIST ThermoML archive (doi:10.1021/je900757k).
± gives the expanded uncertainty stated by the source.

Assay: isobaric coefficient of expansion
Conditions: Liquid, DSC

CCCCCCCCCCCCC [tridecane]
isobaric coefficient of expansion
Conditions | 288.15 K | 298.15 K | 308.15 K | 318.15 K | 328.15 K | 338.15 K | 348.15 K
5000 kPa | 0.00088 ± 2.2e-05 1/K | 0.000891 ± 2.2e-05 1/K | 0.000905 ± 2.2e-05 1/K | 0.000919 ± 2.3e-05 1/K | 0.000936 ± 2.3e-05 1/K | 0.000958 ± 2.3e-05 1/K | 0.00098 ± 2.4e-05 1/K
10000 kPa | 0.00086 ± 2.1e-05 1/K | 0.000868 ± 2.1e-05 1/K | 0.00088 ± 2.2e-05 1/K | 0.000892 ± 2.2e-05 1/K | 0.000903 ± 2.2e-05 1/K | 0.000917 ± 2.2e-05 1/K | 0.000935 ± 2.3e-05 1/K
15000 kPa | 0.00084 ± 2.1e-05 1/K | 0.00085 ± 2.1e-05 1/K | 0.000858 ± 2.1e-05 1/K | 0.000865 ± 2.1e-05 1/K | 0.00087 ± 2.1e-05 1/K | 0.000882 ± 2.2e-05 1/K | 0.000896 ± 2.2e-05 1/K
20000 kPa | 0.000827 ± 2e-05 1/K | 0.000828 ± 2e-05 1/K | 0.000835 ± 2e-05 1/K | 0.000838 ± 2.1e-05 1/K | 0.000844 ± 2.1e-05 1/K | 0.000853 ± 2.1e-05 1/K | 0.000863 ± 2.1e-05 1/K
25000 kPa | 0.000811 ± 2e-05 1/K | 0.000812 ± 2e-05 1/K | 0.000814 ± 2e-05 1/K | 0.000818 ± 2e-05 1/K | 0.00082 ± 2e-05 1/K | 0.000827 ± 2e-05 1/K | 0.000833 ± 2e-05 1/K
30000 kPa | 0.000796 ± 1.9e-05 1/K | 0.000799 ± 2e-05 1/K | 0.000796 ± 1.9e-05 1/K | 0.000799 ± 2e-05 1/K | 0.0008 ± 2e-05 1/K | 0.000801 ± 2e-05 1/K | 0.000807 ± 2e-05 1/K
35000 kPa | 0.000777 ± 1.9e-05 1/K | 0.000782 ± 1.9e-05 1/K | 0.000781 ± 1.9e-05 1/K | 0.000781 ± 1.9e-05 1/K | 0.000782 ± 1.9e-05 1/K | 0.000783 ± 1.9e-05 1/K | 0.000784 ± 1.9e-05 1/K
40000 kPa | 0.000772 ± 1.9e-05 1/K | 0.000771 ± 1.9e-05 1/K | 0.000765 ± 1.9e-05 1/K | 0.000763 ± 1.9e-05 1/K | 0.000761 ± 1.9e-05 1/K | 0.000761 ± 1.9e-05 1/K | 0.000756 ± 1.9e-05 1/K
45000 kPa | 0.000754 ± 1.8e-05 1/K | 0.000755 ± 1.8e-05 1/K | 0.00075 ± 1.8e-05 1/K | 0.000748 ± 1.8e-05 1/K | 0.000745 ± 1.8e-05 1/K | 0.000741 ± 1.8e-05 1/K | 0.000741 ± 1.8e-05 1/K
50000 kPa | 0.000744 ± 1.8e-05 1/K | 0.000744 ± 1.8e-05 1/K | 0.000735 ± 1.8e-05 1/K | 0.000734 ± 1.8e-05 1/K | 0.000728 ± 1.8e-05 1/K | 0.000728 ± 1.8e-05 1/K | 0.000723 ± 1.8e-05 1/K
55000 kPa | 0.000722 ± 1.8e-05 1/K | 0.000725 ± 1.8e-05 1/K | 0.000718 ± 1.8e-05 1/K | 0.000718 ± 1.8e-05 1/K | 0.000714 ± 1.7e-05 1/K | 0.000714 ± 1.7e-05 1/K | 0.000709 ± 1.7e-05 1/K

CCCCCCCCCCC [undecane]
isobaric coefficient of expansion
Conditions | 278.15 K | 288.15 K | 298.15 K | 308.15 K | 318.15 K | 328.15 K | 338.15 K | 348.15 K
5000 kPa | 0.000936 ± 2.3e-05 1/K | 0.000948 ± 2.3e-05 1/K | 0.000965 ± 2.4e-05 1/K | 0.000979 ± 2.4e-05 1/K | 0.000993 ± 2.4e-05 1/K | 0.00101 ± 2.5e-05 1/K | 0.00102 ± 2.5e-05 1/K | 0.00103 ± 2.5e-05 1/K
10000 kPa | 0.000913 ± 2.2e-05 1/K | 0.000924 ± 2.3e-05 1/K | 0.000937 ± 2.3e-05 1/K | 0.00095 ± 2.3e-05 1/K | 0.00096 ± 2.4e-05 1/K | 0.000971 ± 2.4e-05 1/K | 0.000983 ± 2.4e-05 1/K | 0.000991 ± 2.4e-05 1/K
15000 kPa | 0.000893 ± 2.2e-05 1/K | 0.0009 ± 2.2e-05 1/K | 0.000912 ± 2.2e-05 1/K | 0.000921 ± 2.3e-05 1/K | 0.000933 ± 2.3e-05 1/K | 0.00094 ± 2.3e-05 1/K | 0.000946 ± 2.3e-05 1/K | 0.000948 ± 2.3e-05 1/K
20000 kPa | 0.000873 ± 2.1e-05 1/K | 0.000879 ± 2.2e-05 1/K | 0.00089 ± 2.2e-05 1/K | 0.000897 ± 2.2e-05 1/K | 0.000901 ± 2.2e-05 1/K | 0.000909 ± 2.2e-05 1/K | 0.000915 ± 2.2e-05 1/K | 0.000917 ± 2.2e-05 1/K
25000 kPa | 0.000854 ± 2.1e-05 1/K | 0.000856 ± 2.1e-05 1/K | 0.000865 ± 2.1e-05 1/K | 0.00087 ± 2.1e-05 1/K | 0.000874 ± 2.1e-05 1/K | 0.000884 ± 2.2e-05 1/K | 0.000888 ± 2.2e-05 1/K | 0.00089 ± 2.2e-05 1/K
30000 kPa | 0.000836 ± 2e-05 1/K | 0.000843 ± 2.1e-05 1/K | 0.000845 ± 2.1e-05 1/K | 0.000848 ± 2.1e-05 1/K | 0.000851 ± 2.1e-05 1/K | 0.000857 ± 2.1e-05 1/K | 0.00086 ± 2.1e-05 1/K | 0.000859 ± 2.1e-05 1/K
35000 kPa | 0.000819 ± 2e-05 1/K | 0.00082 ± 2e-05 1/K | 0.000825 ± 2e-05 1/K | 0.000828 ± 2e-05 1/K | 0.000829 ± 2e-05 1/K | 0.000833 ± 2e-05 1/K | 0.000834 ± 2e-05 1/K | 0.000833 ± 2e-05 1/K
40000 kPa | 0.000797 ± 2e-05 1/K | 0.000801 ± 2e-05 1/K | 0.000805 ± 2e-05 1/K | 0.000806 ± 2e-05 1/K | 0.000808 ± 2e-05 1/K | 0.000806 ± 2e-05 1/K | 0.00081 ± 2e-05 1/K | 0.00081 ± 2e-05 1/K
45000 kPa | 0.000785 ± 1.9e-05 1/K | 0.000787 ± 1.9e-05 1/K | 0.00079 ± 1.9e-05 1/K | 0.000789 ± 1.9e-05 1/K | 0.000787 ± 1.9e-05 1/K | 0.00079 ± 1.9e-05 1/K | 0.000789 ± 1.9e-05 1/K | 0.000787 ± 1.9e-05 1/K
50000 kPa | 0.000773 ± 1.9e-05 1/K | 0.000773 ± 1.9e-05 1/K | 0.000773 ± 1.9e-05 1/K | 0.000774 ± 1.9e-05 1/K | 0.000775 ± 1.9e-05 1/K | 0.000775 ± 1.9e-05 1/K | 0.000771 ± 1.9e-05 1/K | 0.000769 ± 1.9e-05 1/K
55000 kPa | 0.000765 ± 1.9e-05 1/K | 0.000756 ± 1.9e-05 1/K | 0.000759 ± 1.9e-05 1/K | 0.000759 ± 1.9e-05 1/K | 0.000758 ± 1.9e-05 1/K | 0.000759 ± 1.9e-05 1/K | 0.000754 ± 1.8e-05 1/K | 0.000752 ± 1.8e-05 1/K
